# Test system: substance P induced relaxation of the pig coronary arteries
# Experiment: Antagonism of substance P induced relaxation of the pig coronary arteries
# Type: cell-based
# Details: Sus scrofa, 0.5 h; test compound 3 × 10^-7; response to 10^-9 M substance P; 30 min incubation
# Experimental: Antagonism of substance P induced relaxation of the pig coronary arteries
# Segments of coronary arteries taken from pigs (killed by injection of an overdose of sodium pentobarbital) were inverted and mounted for recording of isometric tension in organ baths (volume 20 ml) with the endothelium at the outside. The preparations were bathed in Krebs - Henseleit solution. The solution was kept at 37° C. and gassed with a mixture of O2 /CO2 (95/5). After stabilisation of the preparations, prostaglandin F2α (10^-5 M) was administered to induce a contraction. This was repeated until contractile responses became stable. Then prostaglandin F2α was again administered and substance P (3×10^-10 M and 10^-9 M cumulatively) was added. […] After washing away the agonists, a known concentration of a compound of formula (I) was added. After an incubation period of 30 minutes, prostaglandin F2α (10^-5 M) and the same concentrations of substance P as described above were again administered in the presence of the compound to be tested.
row,SMILES,inhibition at 0.3 µM [%]
1,Cc1cc(C)cc(C(=O)N2CC[C@H](N3CCC(Nc4nc5ccccc5n4Cc4ccccc4F)CC3)C[C@@H]2Cc2ccccc2)c1 (relative stereo) [Compound 3],35.2

# Same assay, conditions: Sus scrofa, 0.5 h; test compound 3 × 10^-8; response to 10^-9 M substance P; 30 min incubation
row,SMILES,inhibition at 0.03 µM [%]
1,Cc1ccc(Cn2c(NC3CCN([C@@H]4CCN(C(=O)c5cc(C(F)(F)F)cc(C(F)(F)F)c5)[C@H](Cc5ccccc5)C4)C3)nc3cccnc32)o1 (some centres unmarked) [Compound 30],87.5
2,Cc1ncc(Cn2c(NC3CCN([C@H]4CCN(C(=O)c5cc(C(F)(F)F)cc(C(F)(F)F)c5)[C@@H](Cc5ccccc5)C4)CC3)nc3ccccc32)o1 (relative stereo) [Compound 15],84.6
3,Cc1cc(C)cc(C(=O)N2CC[C@@H](N3CCC(Nc4nc5ccccc5n4Cc4cscn4)CC3)C[C@@H]2Cc2ccccc2)c1 (relative stereo) [Compound 10],89.3
4,CCOCCn1c(NC2CCN([C@H]3CCN(C(=O)c4cc(C)cc(C)c4)[C@@H](Cc4ccccc4)C3)CC2)nc2ccccc21 (relative stereo) [Compound 1],15
5,Cc1cc(C)cc(C(=O)N2CC[C@H](N3CCC(Cc4nc5ccccc5n4Cc4csc(C)n4)CC3)C[C@@H]2Cc2ccccc2)c1 (relative stereo) [Compound 11],81.1
6,Cc1nc(C)c(Cn2c(NC3CCN([C@H]4CCN(C(=O)c5cc(C(F)(F)F)cc(C(F)(F)F)c5)[C@@H](Cc5ccccc5)C4)CC3)nc3cccnc32)o1 (relative stereo) [Compound 17],94.5
7,O=C(c1cc(C(F)(F)F)cc(C(F)(F)F)c1)N1CC[C@H](N2CCC(Nc3nc4ccccc4n3Cc3ccc(F)cc3)CC2)C[C@@H]1Cc1ccccc1 (relative stereo) [Compound 26],82.2
8,Cc1ccc(Cn2c(NC3CCN([C@@H]4CCN(C(=O)c5cc(C(F)(F)F)cc(C(F)(F)F)c5)[C@@H](Cc5ccccc5)C4)CC3)nc3ccccc32)o1 (relative stereo) [Compound 29],65.6
9,O=C(c1cc(C(F)(F)F)cc(C(F)(F)F)c1)N1CC[C@H](N2CCC(Oc3nc4ccccc4n3Cc3ccc(F)cc3)CC2)C[C@@H]1Cc1ccccc1 (relative stereo) [Compound 24],100
10,CCOCCn1c(N[C@@H]2CCN(C(=O)c3cc(C(F)(F)F)cc(C(F)(F)F)c3)[C@H](Cc3ccc(F)c(F)c3)C2)nc2ccccc21 (relative stereo) [Compound 148],100
11,O=C(c1cc(C(F)(F)F)cc(C(F)(F)F)c1)N1CC[C@@H](N2CCC(Cc3nc4ccccc4n3Cc3ccc(F)cc3)CC2)C[C@H]1Cc1ccccc1 (relative stereo) [Compound 40],93.3
12,Cc1cc(C)cc(C(=O)N2CC[C@@H](N3CCC(Cc4nc5ccccc5n4Cc4csc(C)n4)CC3)C[C@@H]2Cc2ccccc2)c1 (relative stereo) [Compound 12],92.3
13,Cc1ccc(Cn2c(CC3CCN([C@@H]4CCN(C(=O)c5cc(C(F)(F)F)cc(C(F)(F)F)c5)[C@H](Cc5ccccc5)C4)CC3)nc3ccccc32)o1 (relative stereo) [Compound 42],96.9
14,CCOCCn1c(N[C@@H]2CCN(C(=O)c3cc(C(F)(F)F)cc(C(F)(F)F)c3)[C@@H](Cc3ccc(F)c(F)c3)C2)nc2ccccc21 (relative stereo) [Compound 147],95.6
15,CCOCCn1c(NC2CCC(Cc3ccccc3)N(C(=O)c3cc(C(F)(F)F)cc(C(F)(F)F)c3)CC2)nc2ccccc21 (centres unmarked) [Compound 150],98.1
16,CCOCCn1c(NC2CCN([C@H]3CCN(C(=O)c4cc(C(F)(F)F)cc(C(F)(F)F)c4)[C@@H](Cc4ccccc4)C3)CC2)nc2ccccc21 (relative stereo) [Compound 5],80.7
17,Cc1cc(C)cc(C(=O)N2CC[C@@H](N3CCC(Nc4nc5ccccc5n4Cc4ccccc4F)CC3)C[C@@H]2Cc2ccccc2)c1 (relative stereo) [Compound 4],10.2
18,Cc1ccc(Cn2c(C(O)C3CCN([C@H]4CCN(C(=O)c5cc(C(F)(F)F)cc(C(F)(F)F)c5)[C@@H](Cc5ccccc5)C4)CC3)nc3ccccc32)o1 (some centres unmarked) [Compound 21],95.8

# Same assay, conditions: Sus scrofa, 0.5 h; test compound 3 × 10^-9; response to 10^-9 M substance P; 30 min incubation
row,SMILES,inhibition at 0.003 µM [%]
1,CCOCCn1c(N[C@@H]2CCN(C(=O)c3cc(C(F)(F)F)ccc3C(F)(F)F)[C@@H](Cc3ccc(Cl)cc3)C2)nc2ccccc21 (relative stereo) [Compound 144],88.4
2,Cc1ncc(Cn2c(NC3CCN([C@@H]4CCN(C(=O)c5sc(C)nc5C)[C@H](Cc5ccccc5)C4)CC3)nc3ccccc32)o1 (relative stereo) [Compound 65],9.7
3,Cc1ncc(Cn2c(NC3CCN([C@@H]4CCN(C(=O)c5cccs5)[C@@H](Cc5ccccc5)C4)CC3)nc3ccccc32)o1 (relative stereo) [Compound 56],8.7
4,Cc1ncc(Cn2c(OC3CCN([C@@H]4CCN(C(=O)c5cc(C(F)(F)F)cc(C(F)(F)F)c5)[C@H](Cc5ccccc5)C4)CC3)nc3ccccc32)o1 (relative stereo) [Compound 36],66
5,Cc1ccc(Cn2c(NC3CCN([C@@H]4CCN(C(=O)c5cc(C(F)(F)F)cc(C(F)(F)F)c5)[C@@H](Cc5ccccc5)C4)C3)nc3cccnc32)o1 (some centres unmarked) [Compound 31],90.6
6,CCOCCn1c(N[C@@H]2CCN(C(=O)c3cc(C(F)(F)F)cc(C(F)(F)F)c3)[C@H](Cc3ccc(C(F)(F)F)cc3)C2)nc2ccccc21 (relative stereo) [Compound 146],51.8
7,O=C(c1cc(C(F)(F)F)cc(C(F)(F)F)c1)N1CC[C@@H](N2CCC(Cc3nc4ccccc4n3Cc3ccc(F)cc3)CC2)C[C@@H]1Cc1ccccc1 (relative stereo) [Compound 33],56.8
8,Cc1nc(C)c(Cn2c(NC3CCN([C@@H]4CCN(C(=O)c5cc(C(F)(F)F)cc(C(F)(F)F)c5)[C@@H](Cc5ccccc5)C4)CC3)nc3cccnc32)o1 (relative stereo) [Compound 18],73.7
9,Cc1ccc(Cn2c(NC3CCN([C@@H]4CCN(C(=O)c5cc(C(F)(F)F)cc(C(F)(F)F)c5)[C@@H](Cc5ccccc5)C4)CC3)nc3cccnc32)o1 (relative stereo) [Compound 20],68.9
10,Cc1ncc(Cn2c(N[C@@H]3CCN(C(=O)c4ccc5ccccc5c4)[C@@H](Cc4ccccc4)C3)nc3ccccc32)o1 (relative stereo) [Compound 45],13.1
11,"Cc1ncc(Cn2c(NC3CCN([C@@H]4CCN(C(=O)Nc5cc(C(F)(F)F)cc(C(F)(F)F)c5)[C@@H](Cc5ccccc5)C4)CC3)nc3ccccc32)o1 (racemic) [Compound 52, (±)-trans-N-[3,5-bis(trifluoromethyl)phenyl]-4-[4-[[1-[(2-methyl-5-oxazolyl)methyl]-1H-benzimidazol-2-yl]amino]-1-piperidinyl]-2-(phenylmethyl)-1-piperidinecarboxamide]",6.3
12,Cc1ncc(Cn2c(NC3CCN([C@@H]4CCN(C(=O)c5cc(Cl)cc(Cl)c5)[C@@H](Cc5ccccc5)C4)CC3)nc3ccccc32)o1 (relative stereo) [Compound 55],28.1

# Same assay, conditions: test compound 3 × 10^-8; response to 10^-9 M substance P; 30 min incubation
row,SMILES,% inhibition [%]
1,"CCOCCn1c(NC2CCN(C3CCN(C(=O)c4cc(C(F)(F)F)cc(C(F)(F)F)c4)C(Cc4ccccc4)C3)C(Cc3ccccc3)C2)nc2ccccc21 (stereo not drawn) [Compound 13, 2α,4α-trans-1-[3,5-bis(trifluoromethyl)benzoyl]-4-[4-[[1-(2-ethoxyethyl)-1H-benzimidazol-2-yl]amino]-2-(phenylmethyl)-1-piperidinyl]-2-(phenylmethyl)piperidine]",19.9

# From US6110939A, “(Benzimidazolyl- and imidazopyridinyl) containing 1-(1,2-disubstituted piperidinyl) derivatives” (Janssen Pharmaceutica N.V., priority 1995, dated 2000)
